Data reported in US10968193B2, “Antidiabetic bicyclic compounds” (Merck Sharp & Dohme Corp., priority 2014, dated 2021).

Molecular target: T1, human GPR40 (Homo sapiens, UniProt O14842)
T1 construct: expressed in transfected cells; host or cells: HEK cells stably expressing the aequorin reporter
Assay: Inositol Phosphate Turnover (IP1) Assay 2
Format: cell-based
Conditions: HEK cells stably expressing human GPR40; 15,000 cells per well; compound acoustically transferred; CisBio IP-One kit
Method: Human and mouse GPR40 stable cell-lines were generated in CHO cells stably expressing NFAT BLA (Beta-lactamase). A human GPR40 stable cell-line was generated in HEK cells stably expressing the aequorin expressing reporter. The expression plasmids were transfected using lipofectamine (Life Technologies) following manufacturer's instructions. Stable cell-lines were generated following drug selection.
Inositol Phosphate Turnover (IP1) Assay 2:
The assay was performed in 384-well format. HEK cells stably expressing human GPR40 were plated at 15,000 cells per well in growth medium (DMEM/10% fetal calf serum). Cell plates were then incubated 16 hours at 37 degrees in a 5% CO2 incubator.
Measurement of Inositol Phosphate Turnover (IP1) was performed using the CisBio IP-One kit (Part number 62IPAPEB). After the 16 hour incubation, the cells were washed with HEPES buffer and 10 ul of stimulation buffer (prepared as described in the kit) was added to each well. In a separate plate, compounds were diluted in DMSO (400-fold over the final concentration in the assay well) and 25 nl was acoustically transferred to the appropriate well in the assay cell plate. The plates were then incubated for 60 minutes at 37 degrees. 10 ul of detection buffer (also prepared as described in the IP-One kit) was added to each well and the plates were incubated for 60 minutes in the dark. The plates were then read in a Perkin Elmer EnVision or equivalent reader able to measure FRET. Fluorescent ratio of emission at 665 and 620 nm was then converted to IP1 concentration by back calculating from an IP1 standard curve prepared at the time of the assay.

T1 sequence (O14842 whole entry): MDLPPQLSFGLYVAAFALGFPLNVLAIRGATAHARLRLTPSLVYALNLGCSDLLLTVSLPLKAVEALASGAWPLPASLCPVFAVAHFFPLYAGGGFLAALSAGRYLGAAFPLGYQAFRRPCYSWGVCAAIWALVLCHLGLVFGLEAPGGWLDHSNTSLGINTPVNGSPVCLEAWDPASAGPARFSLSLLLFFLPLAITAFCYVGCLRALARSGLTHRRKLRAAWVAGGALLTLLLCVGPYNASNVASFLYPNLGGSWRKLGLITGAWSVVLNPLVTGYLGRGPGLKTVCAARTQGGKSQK

Row | Compound | EC50
1 | COc1cc(-c2ccc(C3CCc4ccc([C@H](C5CC5)[C@H](C)C(=O)O)cc4O3)c(CN3CCCC3)c2)ccn1 (mixture of isomers) [Example 112] | 5.6 nM
2 | CCOc1cc(-c2ccc(C3CCc4ccc([C@H](C5CC5)[C@H](C)C(=O)O)cc4O3)cc2CN2CCCC2)c(F)cn1 (mixture of isomers) [Example 74, (2S,3R)-3-cyclopropyl-3-(2-(4-(2-ethoxy-5-fluoropyridin-4-yl)-3-(pyrrolidin-1-ylmethyl)phenyl)chroman-7-yl)-2-methylpropanoic acid] | 9.3 nM
3 | COc1cc(-c2ccc(C3CCc4ccc([C@H](C5CC5)[C@H](C)C(=O)O)cc4O3)cc2CN(C)C)c(F)cn1 (single isomer, unassigned) [Example 1b] | 2.9 nM
4 | COc1cc(-c2ccc(C3CCc4ccc([C@H](C5CC5)[C@H](C)C(=O)O)cc4O3)cc2CN2CCCC2)c(F)cn1 (single isomer, unassigned) [Example 9a] | 3.9 nM
5 | COc1cc(-c2ccc(C3CCc4ccc([C@H](C5CC5)[C@H](C)C(=O)O)cc4O3)cc2CN2CCCC2)c(F)cn1 (single isomer, unassigned) [Example 9b] | 3.4 nM
6 | COc1cc(-c2ccc(C3CCc4ccc([C@H](C5CC5)[C@H](C)C(=O)O)cc4O3)cc2CN2CCOCC2)c(F)cn1 (single isomer, unassigned) [Example 11a] | 1.7 nM
7 | COc1cc(-c2ccc(C3CCc4ccc([C@H](C5CC5)[C@H](C)C(=O)O)cc4O3)cc2CN(C)CC(F)(F)F)c(F)cn1 (single isomer, unassigned) [Example 21] | 0.76 nM
8 | COc1cc(-c2ccc(C3CCc4ccc([C@H](C5CC5)[C@H](C)C(=O)O)cc4O3)cc2CN(C)CC(F)(F)F)c(F)cn1 (single isomer, unassigned) [Example 22] | 0.46 nM
9 | COc1cc(-c2ccc(C3CCc4ccc([C@H](C5CC5)[C@H](C)C(=O)O)cc4O3)cc2CN2CC[C@@H](F)C2)c(F)cn1 (single isomer, unassigned) [Example 23] | 1.7 nM
10 | COc1cc(-c2ccc(C3CCc4ccc([C@H](C5CC5)[C@H](C)C(=O)O)cc4O3)cc2CN2CC[C@@H](F)C2)c(F)cn1 (single isomer, unassigned) [Example 24] | 2.2 nM
11 | COc1cc(-c2ccc(C3CCc4ccc([C@H](C5CC5)[C@H](C)C(=O)O)cc4O3)cc2CN2CC[C@@H](C(F)(F)F)C2)c(F)cn1 (single isomer, unassigned) [Example 28] | 1.4 nM
12 | COc1cc(-c2ccc(C3CCc4ccc([C@H](C5CC5)[C@H](C)C(=O)O)cc4O3)cc2CN2CC[C@H](C(F)(F)F)C2)c(F)cn1 (single isomer, unassigned) [Example 29] | 0.8 nM
13 | COc1cc(-c2ccc(C3CCc4ccc([C@H](C5CC5)[C@H](C)C(=O)O)cc4O3)cc2CN2CC[C@H](C(F)(F)F)C2)c(F)cn1 (single isomer, unassigned) [Example 30] | 1.5 nM
14 | COc1cc(-c2ccc(C3CCc4ccc([C@H](C5CCC5)[C@H](C)C(=O)O)cc4O3)cc2CN2CCCC2)c(F)cn1 (single isomer, unassigned) [Example 92] | 4 nM
15 | COc1cc(-c2ncc([C@@H]3CCc4ccc([C@H](C5CC5)[C@H](C)C(=O)O)cc4O3)nc2CN2CCCC2)c(F)cn1 (single isomer, unassigned) [Example 110a] | 446 nM
16 | COc1cc(-c2ncc([C@H]3CCc4ccc([C@H](C5CC5)[C@H](C)C(=O)O)cc4O3)nc2CN2CCCC2)c(F)cn1 (single isomer, unassigned) [Example 110b] | 139 nM
17 | COc1cc(-c2ccc(C3CCc4ccc([C@H](C5CC5)[C@H](C)C(=O)O)cc4O3)cc2CN2CC[C@@H](S(C)(=O)=O)C2)c(F)cn1 (stereo partly drawn) [Example 5] | 660 nM
18 | COc1cc(-c2ccc(C3CCc4ccc([C@H](C5CC5)[C@H](C)C(=O)O)cc4O3)cc2CN2CC[C@H](O)C2)c(F)cn1 (stereo partly drawn) [Example 7] | 118 nM
19 | COc1cc(-c2ccc(C3CCc4ccc([C@H](C5CC5)[C@H](C)C(=O)O)cc4O3)cc2CN2CC[C@@H](O)C2)c(F)cn1 (stereo partly drawn) [Example 8] | 238 nM
20 | COc1cc(-c2ccc(C3CCc4ccc([C@H](C5CC5)[C@H](C)C(=O)O)cc4O3)cc2CN2CC[C@H](OC)C2)c(F)cn1 (stereo partly drawn) [Example 19] | 6.4 nM

The next lines start with the values.

Row | EC50 | Compound
21 | 86 nM | CCOc1cc(-c2ccc(C3CCc4ccc([C@H](C5CC5)[C@H](C)C(=O)O)cc4O3)cc2CN2CCCC2)c(Cl)cn1 (mixture of isomers) [Example 216]
22 | 2.3 nM | COc1cc(-c2ccc(C3CCc4ccc([C@H](C5CC5)[C@H](C)C(=O)O)cc4O3)cc2CN(C)C)c(F)cn1 (single isomer, unassigned) [Example 1a]
23 | 2.4 nM | COc1cc(-c2ccc(C3CCc4ccc([C@H](C5CC5)[C@H](C)C(=O)O)cc4O3)cc2CN2CCOCC2)c(F)cn1 (single isomer, unassigned) [Example 11b]
24 | 2.3 nM | COc1cc(-c2ccc(C3CCc4ccc([C@H](C5CC5)[C@H](C)C(=O)O)cc4O3)cc2CN2CC[C@H](F)C2)c(F)cn1 (single isomer, unassigned) [Example 25]
25 | 2.5 nM | COc1cc(-c2ccc(C3CCc4ccc([C@H](C5CC5)[C@H](C)C(=O)O)cc4O3)cc2CN2CC[C@H](F)C2)c(F)cn1 (single isomer, unassigned) [Example 26]
26 | 1.5 nM | COc1cc(-c2ccc(C3CCc4ccc([C@H](C5CC5)[C@H](C)C(=O)O)cc4O3)cc2CN2CC[C@@H](C(F)(F)F)C2)c(F)cn1 (single isomer, unassigned) [Example 27]
27 | 0.95 nM | COc1cc(-c2ccc(C3CCc4ccc([C@H](C5CC5)[C@H](C)C(=O)O)cc4O3)cc2CN2CCC(F)(F)C2)c(F)cn1 (single isomer, unassigned) [Example 31]
28 | 0.84 nM | COc1cc(-c2ccc(C3CCc4ccc([C@H](C5CC5)[C@H](C)C(=O)O)cc4O3)cc2CN2CCC(F)(F)C2)c(F)cn1 (single isomer, unassigned) [Example 32]
29 | 2.9 nM | COc1cc(-c2ccc(C3CCc4ccc([C@H](C5CCC5)[C@H](C)C(=O)O)cc4O3)cc2CN2CCCC2)c(F)cn1 (single isomer, unassigned) [Example 93]
30 | 1.8 nM | COc1cc(-c2ccc(C3CCc4ccc([C@H](C5CCC5)[C@H](C)C(=O)O)cc4O3)cc2CN(C)C)c(F)cn1 (single isomer, unassigned) [Example 94]
31 | 1.8 nM | COc1cc(-c2ccc(C3CCc4ccc([C@H](C5CCC5)[C@H](C)C(=O)O)cc4O3)cc2CN(C)C)c(F)cn1 (single isomer, unassigned) [Example 95]
32 | 227 nM | COc1cc(-c2ccc(C3CCc4ccc([C@H](C5CC5)[C@H](C)C(=O)O)cc4O3)cc2CN2CC[C@H](S(C)(=O)=O)C2)c(F)cn1 (stereo partly drawn) [Example 6]
33 | 0.87 nM | COc1cc(-c2ccc(C3CCc4ccc([C@H](C5CC5)[C@H](C)C(=O)O)cc4O3)cc2CN2CCC(C(F)(F)F)C2)c(F)cn1 (stereo partly drawn) [Example 14]
34 | 1.1 nM | COc1cc(-c2ccc(C3CCc4ccc([C@H](C5CC5)[C@H](C)C(=O)O)cc4O3)cc2CN2CC[C@H](F)C2)c(F)cn1 (stereo partly drawn) [Example 15]
35 | 2.3 nM | COc1cc(-c2ccc(C3CCc4ccc([C@H](C5CC5)[C@H](C)C(=O)O)cc4O3)cc2CN2CC[C@@H](F)C2)c(F)cn1 (stereo partly drawn) [Example 16]
36 | 11 nM | COc1cc(-c2ccc(C3CCc4ccc([C@H](C5CC5)[C@H](C)C(=O)O)cc4O3)cc2CN2CC[C@@H](OC)C2)c(F)cn1 (stereo partly drawn) [Example 18]
